The text below walks through data of patent US10519152B2, “Compounds and their use in treating cancer” (AstraZeneca AB, priority 2017, dated 2019).

The target in this assay is T1, Estrogen Receptor (ERα) in MCF-7 human ductal carcinoma breast cell line (Homo sapiens, UniProt P03372).
T1 construct: endogenous in cells; host or cells: MCF-7
T1 sequence (P03372 1-595): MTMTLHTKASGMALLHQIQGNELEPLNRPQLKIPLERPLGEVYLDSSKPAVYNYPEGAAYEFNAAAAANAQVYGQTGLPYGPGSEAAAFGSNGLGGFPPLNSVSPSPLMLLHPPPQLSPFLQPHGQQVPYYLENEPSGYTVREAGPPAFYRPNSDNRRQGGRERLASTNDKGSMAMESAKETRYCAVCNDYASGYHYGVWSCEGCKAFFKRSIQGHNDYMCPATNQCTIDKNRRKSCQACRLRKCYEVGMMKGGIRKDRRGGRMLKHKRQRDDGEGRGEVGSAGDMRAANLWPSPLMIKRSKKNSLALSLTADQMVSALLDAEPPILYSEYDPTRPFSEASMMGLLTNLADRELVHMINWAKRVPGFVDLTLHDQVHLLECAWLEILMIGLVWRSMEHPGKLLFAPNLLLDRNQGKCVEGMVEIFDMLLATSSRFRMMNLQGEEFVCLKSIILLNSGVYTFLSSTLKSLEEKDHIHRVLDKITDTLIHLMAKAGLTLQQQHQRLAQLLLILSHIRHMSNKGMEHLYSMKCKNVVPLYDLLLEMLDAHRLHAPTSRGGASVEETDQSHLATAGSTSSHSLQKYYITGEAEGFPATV
As to the kind of experiment: MCF-7 ER degradation assay (cell based immuno-fluorescence). Conditions: MCF-7 cells; for ER degradation ≥ 90% at 0.3 μM: ER degradation by fulvestrant at 0.3 μM is defined as 100%; for DC50: 18-22 hours incubation, 50% reduction of ERα expression, single experiment or average of two or more, read-out: MCF-7 ER degradation IC50. In a few lines:
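MCF-7 human ductal carcinoma breast cells were seeded at 3.75×10^4 cells per mL (40 μL per well) in 384 well plates with phenol red free DMEM containing 2 mM L-Glutamine and 5% (v/v) Charcoal/Dextran treated foetal calf serum. After overnight culture, compounds were acoustically dispensed, incubated 18-22 hours, then cells were formaldehyde-fixed and immunostained for ERα.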

SMILES strings stand for the structures.

As to `Cc1ncsc1-c1ccc(CNC(=O)[C@@H]2C[C@@H](O)CN2C(=O)[C@@H](NC(=O)COCCOc2ccc(COc3cc(F)c([C@@H]4c5[nH]c6ccccc6c5C[C@@H](C)N4CC(C)(C)F)c(F)c3)cc2)C(C)(C)C)cc1` [Example 5, (2S,4R)-1-((S)-2-(2-(2-(4-((3,5-Difluoro-4-((1R,3R)-2-(2-fluoro-2-methylpropyl)-3-methyl-2,3,4,9-tetrahydro-1H-pyrido[3,4-b]indol-1-yl)phenoxy)methyl)phenoxy)ethoxy)acetamido)-3,3-dimethylbutanoyl)-4-hydroxy-N-(4-(4-methylthiazol-5-yl)benzyl)pyrrolidine-2-carboxamide], the “ER degradation ≥ 90% at 0.3 μM” value is “•” and the DC50 was determined as 2.6 nM.
In the same order, the values of `Cc1ncsc1-c1ccc(CNC(=O)[C@@H]2C[C@@H](O)CN2C(=O)[C@@H](NC(=O)COCCOCCCCCOc2cc(F)c([C@@H]3c4[nH]c5ccccc5c4C[C@@H](C)N3CC(C)(F)F)c(F)c2)C(C)(C)C)cc1` [Example 166, (2S,4R)-1-((S)-2-(2-(2-((5-(4-((1R,3R)-2-(2,2-Difluoropropyl)-3-methyl-2,3,4,9-tetrahydro-1H-pyrido[3,4-b]indol-1-yl)-3,5-difluorophenoxy)pentyl)oxy)ethoxy)acetamido)-3,3-dimethylbutanoyl)-4-hydroxy-N-(4-(4-methylthiazol-5-yl)benzyl)pyrrolidine-2-carboxamide] are “••” and 0.8 nM.
As to `Cc1ncsc1-c1ccc(CNC(=O)[C@@H]2C[C@@H](O)CN2C(=O)[C@@H](NC(=O)CCCCCCCCCOc2cc(F)c([C@@H]3c4[nH]c5ccccc5c4C[C@@H](C)N3CC(C)(C)F)c(F)c2)C(C)(C)C)cc1` [Example 11, (2S,4R)-1-((S)-2-(10-(3,5-Difluoro-4-((1R,3R)-2-(2-fluoro-2-methylpropyl)-3-methyl-2,3,4,9-tetrahydro-1H-pyrido[3,4-b]indol-1-yl)phenoxy)decanamido)-3,3-dimethylbutanoyl)-4-hydroxy-N-(4-(4-methylthiazol-5-yl)benzyl)pyrrolidine-2-carboxamide], the “ER degradation ≥ 90% at 0.3 μM” value is recorded as “••” and the DC50 worked out at 3.2 nM.
In the same order, the values of `Cc1ncsc1-c1ccc([C@H](C)NC(=O)[C@@H]2C[C@@H](O)CN2C(=O)[C@@H](NC(=O)COCCc2ccc(COc3cc(F)c([C@@H]4c5[nH]c6ccccc6c5C[C@@H](C)N4CC(C)(C)F)c(F)c3)nc2)C(C)(C)C)cc1` [Example 159, (2S,4R)-1-((S)-2-(2-(2-(6-((3,5-Difluoro-4-((1R,3R)-2-(2-fluoro-2-methylpropyl)-3-methyl-2,3,4,9-tetrahydro-1H-pyrido[3,4-b]indol-1-yl)phenoxy)methyl)pyridin-3-yl)ethoxy)acetamido)-3,3-dimethylbutanoyl)-4-hydroxy-N—((S)-1-(4-(4-methylthiazol-5-yl)phenyl)ethyl)pyrrolidine-2-carboxamide] are “••” and 0.5 nM.
In the same order, the values of `Cc1ncsc1-c1ccc(CNC(=O)[C@@H]2C[C@@H](O)CN2C(=O)[C@@H](NC(=O)C(F)(F)OCCOCCCCOc2cc(F)c([C@@H]3c4[nH]c5ccccc5c4C[C@@H](C)N3CC(C)(C)F)c(F)c2)C(C)(C)C)cc1` [Example 121, (2S,4R)-1-((S)-2-(2-(2-(4-(3,5-Difluoro-4-((1R,3R)-2-(2-fluoro-2-methylpropyl)-3-methyl-2,3,4,9-tetrahydro-1H-pyrido[3,4-b]indol-1-yl)phenoxy)butoxy)ethoxy)-2,2-difluoroacetamido)-3,3-dimethylbutanoyl)-4-hydroxy-N-(4-(4-methylthiazol-5-yl)benzyl)pyrrolidine-2-carboxamide] are “•” and 2.6 nM.
In the same order, the values of `Cc1ncsc1-c1ccc(CNC(=O)[C@@H]2C[C@@H](O)CN2C(=O)[C@@H](NC(=O)CCOCCCCCCCOc2cc(F)c([C@@H]3c4[nH]c5ccccc5c4C[C@@H](C)N3CC(C)(C)F)c(F)c2)C(C)(C)C)cc1` [Example 115, (2S,4R)-1-((S)-2-(3-((7-(3,5-difluoro-4-((1R,3R)-2-(2-fluoro-2-methylpropyl)-3-methyl-2,3,4,9-tetrahydro-1H-pyrido[3,4-b]indol-1-yl)phenoxy)heptyl)oxy)propanamido)-3,3-dimethylbutanoyl)-4-hydroxy-N-(4-(4-methylthiazol-5-yl)benzyl)pyrrolidine-2-carboxamide] are “••” and 3.4 nM.
As for `Cc1ncsc1-c1ccc(CNC(=O)[C@@H]2C[C@@H](O)CN2C(=O)[C@@H](NC(=O)COCCOCCCCCOc2cnc([C@@H]3c4[nH]c5ccccc5c4C[C@@H](C)N3CC(C)(F)F)c(F)c2)C(C)(C)C)cc1` [Example 164, (2S,4R)-1-((S)-2-(2-(2-((5-((6-((1S,3R)-2-(2,2-Difluoropropyl)-3-methyl-2,3,4,9-tetrahydro-1H-pyrido[3,4-b]indol-1-yl)-5-fluoropyridin-3-yl)oxy)pentyl)oxy)ethoxy)acetamido)-3,3-dimethylbutanoyl)-4-hydroxy-N-(4-(4-methylthiazol-5-yl)benzyl)pyrrolidine-2-carboxamide], the “ER degradation ≥ 90% at 0.3 μM” value is recorded as “••” and the DC50 was 4.2 nM.
In the same order, the values of `Cc1ncsc1-c1ccc(CNC(=O)[C@@H]2C[C@@H](O)CN2C(=O)[C@@H](NC(=O)COCCc2ccc(COc3cc(F)c([C@@H]4c5[nH]c6ccccc6c5C[C@@H](C)N4CC(C)(C)F)c(F)c3)cc2)C(C)(C)C)cc1` [Example 53, (2S,4R)-1-((S)-2-(2-(4-((3,5-difluoro-4-((1R,3R)-2-(2-fluoro-2-methylpropyl)-3-methyl-2,3,4,9-tetrahydro-1H-pyrido[3,4-b]indol-1-yl)phenoxy)methyl)phenethoxy)acetamido)-3,3-dimethylbutanoyl)-4-hydroxy-N-(4-(4-methylthiazol-5-yl)benzyl)pyrrolidine-2-carboxamide] are “•” and 3.5 nM.
In the same order, the values of `Cc1ncsc1-c1ccc([C@H](C)NC(=O)[C@@H]2C[C@@H](O)CN2C(=O)[C@@H](NC(=O)COCCOCCCCCOc2cc(F)c([C@@H]3c4[nH]c5ccccc5c4C[C@@H](C)N3CC(C)(C)F)c(F)c2)C(C)(C)C)cc1` [Example 156, (2S,4R)-1-((S)-2-(2-(2-((5-(3,5-Difluoro-4-((1R,3R)-2-(2-fluoro-2-methylpropyl)-3-methyl-2,3,4,9-tetrahydro-1H-pyrido[3,4-b]indol-1-yl)phenoxy)pentyl)oxy)ethoxy)acetamido)-3,3-dimethylbutanoyl)-4-hydroxy-N—((S)-1-(4-(4-methylthiazol-5-yl)phenyl)ethyl)pyrrolidine-2-carboxamide] are “••” and 1.5 nM.
As for `Cc1ncsc1-c1ccc(CNC(=O)[C@@H]2C[C@@H](O)CN2C(=O)[C@@H](NC(=O)COCCOCCOCCOc2cc(F)c([C@@H]3c4[nH]c5ccccc5c4C[C@@H](C)N3C[C@H](C)CO)c(F)c2)C(C)(C)C)cc1` [Example 101, (2S,4R)-1-((S)-2-(tert-butyl)-14-(3,5-difluoro-4-((1R,3R)-2-((S)-3-hydroxy-2-methylpropyl)-3-methyl-2,3,4,9-tetrahydro-1H-pyrido[3,4-b]indol-1-yl)phenoxy)-4-oxo-6,9,12-trioxa-3-azatetradecanoyl)-4-hydroxy-N-(4-(4-methylthiazol-5-yl)benzyl)pyrrolidine-2-carboxamide], the “ER degradation ≥ 90% at 0.3 μM” value was “•” and the DC50 was found to be 1.8 nM.
In the same order, the values of `Cc1ncsc1-c1ccc(CNC(=O)[C@@H]2C[C@@H](O)CN2C(=O)[C@@H](NC(=O)COCCCCCOCCCOc2cc(F)c([C@@H]3c4[nH]c5ccccc5c4C[C@@H](C)N3CC(C)(C)F)c(F)c2)C(C)(C)C)cc1` [Example 136, (2S,4R)-1-((S)-2-(2-((5-(3-(3,5-Difluoro-4-((1R,3R)-2-(2-fluoro-2-methylpropyl)-3-methyl-2,3,4,9-tetrahydro-1H-pyrido[3,4-b]indol-1-yl)phenoxy)propoxy)pentyl)oxy)acetamido)-3,3-dimethylbutanoyl)-4-hydroxy-N-(4-(4-methylthiazol-5-yl)benzyl)pyrrolidine-2-carboxamide] are “••” and 1.1 nM.
In the same order, the values of `Cc1ncsc1-c1ccc(CNC(=O)[C@@H]2C[C@@H](O)CN2C(=O)[C@@H](NC(=O)COCCC(C)(C)CCOc2cc(F)c([C@@H]3c4[nH]c5ccccc5c4C[C@@H](C)N3CC(C)(C)F)c(F)c2)C(C)(C)C)cc1` [Example 23, (2S,4R)-1-((S)-2-(2-((5-(3,5-Difluoro-4-((1R,3R)-2-(2-fluoro-2-methylpropyl)-3-methyl-2,3,4,9-tetrahydro-1H-pyrido[3,4-b]indol-1-yl)phenoxy)-3,3-dimethylpentyl)oxy)acetamido)-3,3-dimethylbutanoyl)-4-hydroxy-N-(4-(4-methylthiazol-5-yl)benzyl)pyrrolidine-2-carboxamide] are “••” and 1 nM.
